Experimental data taken from patent publication US12173089B2, “Inhibition of pulmonary fibrosis with nutlin-3A and peptides” (BOARD OF REGENTS, THE UNIVERSITY OF TEXAS SYSTEM, priority 2013, dated 2024).

Key:
[1] = tested on: fibrotic lung tissue explants; assay: Ex vivo treatment of fibrotic lung tissue explants of BLM mice, col-I and α-SMA by Western blotting; format: cell-based; conditions: CSP-4 10 nM, nutlin-3a 10 μM, 72 h
Procedure: FIG. 13. Inhibition of BLM-induced pulmonary fibrosis by ex vivo treatment of WT mice lung tissues with CSP-4 or nutlin-3a (NTL). Mice were exposed to intranasal BLM for 21 d to induce pulmonary fibrosis. These mice (n=3) were sacrificed, lungs were excised, chopped into small pieces and placed in culture dishes with DMEM medium containing 10% fetal bovine serum. The tissue samples were later treated with CSP-4 (10 nM), control peptide (CP) and nutlin-3a (TL) (10 μM) for 72 h. Conditioned medium and tissue lysates were prepared and analyzed for changes in col-I, a-SMA and β-actin by Western blotting.
Mice were exposed to intranasal BLM for 21 d to induce pulmonary fibrosis, sacrificed, and their lungs excised and chopped into small pieces and placed into culture medium. These tissue samples were thereafter treated with 10 nM CSP-4 peptide, control peptide (CP) or nutlin-3a for 72 h. Conditioned medium and tissue lysates were and analyzed for changes in col-I and α-SMA by Western blotting. […] The present inventors' results provided herein and in recent reports (e.g., Bhandary et al, 2012, 2013, supra), strongly support the conception that p53-mediated downstream changes in uPA and PAI-1 regulates viability of FL-fibroblasts.

[2] = tested on: FL(IPF)-fibroblasts; assay: Immunoblot of FL-fibroblast lysates for Col-I, PAI-1, p53 and uPA after exposure to nutlin-3a or CSP-4; format: cell-based, human; conditions: nutlin-3a 10 μM, CSP-4 10 nM, 48 hrs
Procedure: FIGS. 8A-8C. Role of p53-fibrinolytic system cross-talk in nutlin-3a (NTL) or CSP-4-mediated inhibition of col-I expression in FL(IPF)-fibroblasts. (FIG. 8A) FL-fibroblasts were exposed to PBS, nutlin-3a (10 uM), CSP-4 (10 nM) or control peptide (CP) for 48 h. The cell lysates were immunoblotted for the expression of Col-I, PAI-1, p53, uPA and β-actin. (FIG. 8B) FL-fibroblasts cultured in 12 well plates in DMEM media were exposed to vehicle (PBS) or nutlin-3a, CSP-4 or CP. After 3 d, cells were detached and counted. (FIG. 8C) FL-fibroblasts were transduced with empty adenovirus vector alone (Ad-EV) or Ad-vector expressing p53 (Ad-p53), PAI-1 (Ad-PAI-1) or caveolin-1 (Ad-Cav-1). After 48 h, cell lysates were immunoblotted for Col-I, p53, PAI-1, uPA and β-actin.
FL-fibroblasts were exposed to PBS (control), nutlin-3a (10 μM), CSP-4 (10 nM) or CP for 48 hrs. Lysates were immunoblotted for the expression of Col-I, PAI-1, p53, and uPA. Cultured FL- were exposed to vehicle (PBS) or nutlin-3a, CSP-4 or CP and counted to assess proliferation. […] The process involves induction of p53 and PAI-1 expression, and concurrent inhibition of uPA.

[3] = tested on: BLM-treated mice; assay: Established lung fibrosis in BLM-treated mice (CT scanning, lung function, trichrome staining, hydroxyproline, desmosine); format: in vivo; conditions: for established lung fibrosis: WT mice, results reported herein and elsewhere
Procedure: FIGS. 10A-10D. Nutlin-3a (NTL) inhibits lung fibrosis in BLM-treated mice. Mice were exposed to BLM for 14 d to induce lung fibrosis. Saline treated mice were used as fibrosis controls. After 14 d, mice exposed to BLM were injected IV with either vehicle or nutlin-3 a (10 mg/kg body weight) (Zhang F et al. Drug Metab Dispos 39: 15-21, 2011) to determine whether nutlin-3 a inhibited established lung fibrosis. On day 21 after BLM injury, mice underwent CT scanning to assess the extent of fibrosis (FIG. 10A). One representative example is shown (n=9). (FIG. 10B) Lung compliance and resistance were measured in the same mice using the Flexivent system to assess improvement in lung function after nutlin-3 a treatment (n=9). (FIG. 10C) Lung sections were subjected to trichrome staining to assess lung architecture and collagen deposition as an indication of lung fibrosis. (FIG. 10D) Whole lung homogenates were analyzed for total collagen (hydroxyproline) and desmosine content as an independent assessment of changes in ECM.
FIGS. 11A-11D. CSP-4 inhibits established lung fibrosis and improves lung function. Mice were exposed to BLM to induce pulmonary fibrosis. After 14 d, the mice were injected IV with either vehicle or 1.5 mg/kg body weight of CSP-4 or control peptide (“CP”) of scrambled sequence. On d 21 after BLM injury, mice underwent CT scanning examine CSP-4 inhibition of established lung fibrosis (FIG. 11A). One representative example is shown (n=9). (FIG. 11B): Lung volumes were measured in the same mice (n=9) using quantitative CT renditions. (FIG. 11C): Lung sections were subjected to trichrome and H&E staining (not shown) to assess collagen deposition as an indicator of lung fibrosis. (FIG. 11D) Analysis of whole lung homogenates for total hydroxyproline content.
Mice exposed to BLM (or saline in controls) for 14 d to induce lung fibrosis were injected IV with nutlin-3a (10 mg/kg body weight) (Zhang et al, supra) or a vehicle control to determine and the effect on established lung fibrosis was examined. Fibrosis was evaluated by CT scanning and lung function (compliance and resistance) were measured using the Flexivent system. Lung sections were subjected to trichrome staining and H & E staining (the latter not shown) to assess lung architecture and collagen deposition as an indication of fibrosis. Finally, whole lung homogenates were analyzed for total collagen (hydroxyproline) and desmosine content (Bhandary Y P et al, Am J Physiol: Lung Cell Mol Physiol 302:L463-73, 2012; Bhandary Y P et al, Am J Pathol, 183: 131-43 2013) as an independent assessment of the ECM. […] Oral administration of Nutlin-3a 14 days after BLM injury likewise inhibited pulmonary fibrosis in mice.
Mice were exposed to BLM to induce pulmonary fibrosis. After 14 d, the mice were injected IV with either vehicle or 1.5 mg/kg body weight of CSP-4 (SEQ ID NO: 1) or control peptide (scrambled sequence of same amino acids; CP, SEQ ID NO:5) at 1.5 mg/kg body weight or vehicle was injected IV into mice exposed to BLM 14 days earlier. One week later, mice were tested by CT scanning to evaluate lung fibrosis. Lung volume was measured in the same mice using quantitative CT renditions.

[4] = tested on: LPS-induced ALI; conditions: mice; cited from earlier work
[5] = tested on: FL-fibroblasts; assay: Treatment of FL-fibroblasts with nutlin-3a or CSP-4 (findings stated in the summary); format: cell-based; conditions: for miR-34a expression / production of ECM / uPAR expression: FL-fibroblasts

Molecule	fibrosis ex vivo (changes in col-I and α-SMA) [1]	PAI-1 expression [2]	col-I expression [2]	p53 expression [2]	uPA expression [2]	effect on established lung fibrosis (CT, compliance and resistance, trichrome, hydroxyproline, desmosine) ([3]; IV 10 mg/kg body weight 14 d after BLM, read on day 21)	established lung fibrosis ([3]; IV or oral administration beginning 14 d after BLM)	pulmonary fibrosis ([3]; oral administration 14 days after BLM injury)	severity of LPS-induced ALI [4]	miR-34a expression [5]	production of ECM [5]	uPAR expression [5]	apoptosis of fibrotic fibroblasts ([5]; fibroblasts from lungs of patients with IPF and of mice with BLM-induced pulmonary fibrosis)	established lung fibrosis ([3]; IP or IV administration beginning 14 d after BLM)	BLM-induced lung fibrosis (CT, lung volume, trichrome and H&E, hydroxyproline) ([3]; IV 1.5 mg/kg body weight 14 d after BLM, read one week later)
COc1ccc(C2=NC(c3ccc(Cl)cc3)C(c3ccc(Cl)cc3)N2C(=O)N2CCNC(=O)C2)c(OC(C)C)c1 (centres unmarked) [nutlin-3a, 4-2-4,5-dihydro-1H-imidazole-1-piperazin-2-one]	inhibited	induction	inhibited	induction	inhibition	beneficial effect	mitigates	inhibited	reduced	restore	inhibits	inhibition	results in apoptosis		
FTTFTVT [CSP-4]	inhibited	induction	inhibited	induction	inhibition					restore	inhibits	inhibition		mitigates	inhibited
